# Test system: KU1919.1
# Assay: Cell Titer Glo (CTG) proliferation assay, KU1919
# Format: cell-based
# Settings: Homo sapiens, KU-19-19; KU1919.1 cells, 72.0 hrs.; read-out: AVE CTG Proliferation KU1919.1 72.0 hrs.
# Description: Seed cells in 40 μL of cell culture media into each well of 384-well cell culture plate, spin them at room temperature at 1,000 RPM for 1 minute and then transfer the plates into 37° C. 5% CO2 incubator overnight. Next day, treat cells with 40 nL of diluted compound and return to incubator. After compound treatment for 3 days, Add 30 μL of CellTiter-Glo reagent (Promega) into each well to be detected. Then place the plates at room temperature for 30 min followed by reading on EnVision. Inhibition activity calculated as % DMSO=100×(LumSample-Lum low control)/(Lum high control-Lum low control) where high control is from cells treated with 0.1% DMSO and Low control obtained from PBS only. Use XLFit (equation 201) to calculate IC50 (A+ ((B−A)/(1[…]((x/C)^D)))) where A: Bottom, B: Top, C: IC50, D: Slope.
row,SMILES,IC50 [µM]
1,NC1(C(=O)N[C@@H](CCOCCCCCNC(=O)[C@H](NC(=O)c2cccc(C3CCCN(C(=O)CNC4CC4)C3)c2)C2CCCCC2)c2ccc(Cl)cc2)CCN(c2ncnc3[nH]ccc23)CC1 (stereo partly drawn) [Compound I-298],1 to 5
2,CC(C)(C)OC(=O)N1CCC(OC2CCN(CC[C@H](NC(=O)C3(N)CCN(c4ncnc5[nH]ccc45)CC3)c3ccc(Cl)cc3)CC2)CC1 [Compound I-316],1 to 5
3,NC1(C(=O)N[C@@H](CCN2CCC(OC3CCN(C(=O)[C@H](NC(=O)c4cccc(C5CC5)c4F)C4CCCCC4)CC3)CC2)c2ccc(Cl)cc2)CCN(c2ncnc3[nH]ccc23)CC1 [Compound I-260],1 to 5
4,NC1(C(=O)N[C@@H](CCN2CCC(OC3CCN(C(=O)[C@H](NC(=O)c4cccc(C5CN(C(=O)CNC6CC6)C5)c4)C4CCCCC4)CC3)CC2)c2ccc(Cl)cc2)CCN(c2ncnc3[nH]ccc23)CC1 [Compound I-244],1 to 5
5,C[C@@H]1C[C@@H](O)c2ncnc(N3CCN(C(=O)[C@H](CNCCNC(=O)CNC45CCC(CN6CCN(C(=O)[C@H](NC(=O)c7cccc(C8CCCN(C(=O)CNC9CC9)C8)c7)C7CCCCC7)CC6)(CC4)OC5)c4ccc(Cl)cc4)CC3)c21 (stereo partly drawn) [Compound I-326],5 to 10
6,NC1(C(=O)N[C@@H](CCNS(=O)(=O)CCCCNC(=O)[C@H](NC(=O)c2cccc(C3CCCN(C(=O)CNCc4ccc(F)cc4F)C3)c2)C2CCCCC2)c2ccc(Cl)cc2)CCN(c2ncnc3[nH]ccc23)CC1 (stereo partly drawn) [Compound I-239],> 10
7,C[C@@H]1C[C@@H](O)c2ncnc(N3CCN(C(=O)[C@H](CNCCNC(=O)CN4CCC(OC5CCN(C(=O)[C@H](NC(=O)c6cccc(C7CCCN(C(=O)C8CC8)C7)c6F)C6CCCCC6)CC5)CC4)c4ccc(Cl)cc4)CC3)c21 (stereo partly drawn) [Compound I-264],1 to 5
8,CCc1cccc(-c2cnc(C(=O)NCCOCCNCC[C@H](NC(=O)C3(N)CCN(c4ncnc5[nH]ccc45)CC3)c3ccc(Cl)cc3)c(NC(=O)CN3CCOCC3)c2)c1 [Compound I-178],1 to 5
9,NC1(C(=O)N[C@@H](CCN2CCN(C(=O)CN3CCC(CN4CCN(C(=O)[C@H](NC(=O)c5cccc(C6CCCN(C(=O)C7CC7)C6)c5)C5CCCCC5)CC4)CC3)CC2)c2ccc(Cl)cc2)CCN(c2ncnc3[nH]ccc23)CC1 (stereo partly drawn) [Compound I-247],1 to 5
10,NC1(C(=O)N[C@@H](CCN2CCC(OC3CCN(C(=O)[C@H](NC(=O)c4ccc(C5CCN(C(=O)C6CC6)CC5)cc4)C4CCCCC4)CC3)CC2)c2ccc(Cl)cc2)CCN(c2ncnc3[nH]ccc23)CC1 [Compound I-231],1 to 5
11,NC1(C(=O)N[C@@H](CCN2CCC(OC3CCN(C(=O)[C@H](NC(=O)c4cc(C5CCCN(C(=O)C6CC6)C5)ccc4F)C4CCCCC4)CC3)CC2)c2ccc(Cl)cc2)CCN(c2ncnc3[nH]ccc23)CC1 (stereo partly drawn) [Compound I-221],1 to 5
12,NC1(C(=O)N[C@@H](CCN2CCN(C(=O)C34CCC(CN5CCN(C(=O)[C@H](NC(=O)c6cccc(C7CCCN(C(=O)C8CC8)C7)c6)C6CCCCC6)CC5)(CC3)OC4)CC2)c2ccc(Cl)cc2)CCN(c2ncnc3[nH]ccc23)CC1 (stereo partly drawn) [Compound I-232],> 10
13,NC1(C(=O)N[C@@H](CCN2CCC(OC3CCN(C(=O)[C@H](NC(=O)c4cc(C5CCCN(C(=O)CNCc6ccc(F)cc6F)C5)ccc4F)C4CCCCC4)CC3)CC2)c2ccc(Cl)cc2)CCN(c2ncnc3[nH]ccc23)CC1 (stereo partly drawn) [Compound I-222],1 to 5
14,NC1(C(=O)N[C@@H](CCN2CCC(OC3CCN(C(=O)[C@H](NC(=O)c4cccc(C5CCCN(C(=O)C6CC6)C5)c4)C4CCCCC4)CC3)CC2)c2ccc(Cl)cc2)CCN(c2ncnc3[nH]ccc23)CC1 (stereo partly drawn) [Compound I-249],1 to 5
15,NC1(C(=O)N[C@@H](CCNC(=O)[C@H](NC(=O)C2CC2)C2CCCCC2)c2ccc(Cl)cc2)CCN(c2ncnc3[nH]ccc23)CC1 [Compound I-237],5 to 10
16,NC1(C(=O)N[C@@H](CCN2CCC(OC3CCN(C(=O)c4cccc(C5CCCN(C(=O)CNCc6ccc(F)cc6F)C5)c4F)CC3)CC2)c2ccc(Cl)cc2)CCN(c2ncnc3[nH]ccc23)CC1 (stereo partly drawn) [Compound I-289],1 to 5
17,C=CC(=O)N1CCN(c2ccc(CCC(=O)N3CCC(CN4CCN(CC[C@H](NC(=O)C5(N)CCN(c6ncnc7[nH]ccc67)CC5)c5ccc(Cl)cc5)CC4)CC3)o2)C(=O)C1 [Compound I-284],1 to 5
18,CCc1cccc(-c2cnc(C(=O)N3CCN(CC4CCN(CC(=O)NCCNC[C@@H](C(=O)N5CCN(c6ncnc7c6[C@H](C)C[C@H]7O)CC5)c5ccc(Cl)cc5)CC4)CC3)c(NC(=O)CNCc3ccncn3)c2)c1 [Compound I-166],1 to 5
19,CCc1cccc(-c2cc(F)c(C(=O)N3CCC(OC4CCN(CC[C@H](NC(=O)C5(N)CCN(c6ncnc7[nH]ccc67)CC5)c5ccc(Cl)cc5)CC4)CC3)c(F)c2)c1 [Compound I-280],1 to 5
20,NC1(C(=O)N[C@@H](CCOCCCCCNC(=O)[C@H](NC(=O)c2cccc(C3CCCN(C(=O)C45CC(C4)C5)C3)c2)C2CCCCC2)c2ccc(Cl)cc2)CCN(c2ncnc3[nH]ccc23)CC1 (stereo partly drawn) [Compound I-296],> 10

row,SMILES,IC50 [µM]
1,NC1(C(=O)N[C@@H](CCN2CCC(OC3CCN(C(=O)[C@H](NC(=O)c4cccc(C5CN(C(=O)CNCc6ccc(F)cc6F)C5)c4)C4CCCCC4)CC3)CC2)c2ccc(Cl)cc2)CCN(c2ncnc3[nH]ccc23)CC1 [Compound I-245],0.5 to 1
2,NC1(C(=O)N[C@@H](CCNS(=O)(=O)CCCCNC(=O)[C@H](NC(=O)c2cccc(C3CN(C(=O)C4CC4)C3)c2)C2CCCCC2)c2ccc(Cl)cc2)CCN(c2ncnc3[nH]ccc23)CC1 [Compound I-228],> 10
3,C[C@@H]1C[C@@H](O)c2ncnc(N3CCN(C(=O)[C@H](CN4CCC(OC5CCN(C(=O)[C@H](NC(=O)c6cccc(C7CCCN(C(=O)C8(C)CC8)C7)c6F)C6CCCCC6)CC5)CC4)c4ccc(Cl)cc4)CC3)c21 (stereo partly drawn) [Compound I-291],1 to 5
4,CC1(C(=O)N2CCCC(c3cccc(C(=O)N[C@@H](C(=O)N4CCC(OC5CCN(CCOCC[C@H](NC(=O)C6(N)CCN(c7ncnc8[nH]ccc78)CC6)c6ccc(Cl)cc6)CC5)CC4)C4CCCCC4)c3)C2)CC1 (stereo partly drawn) [Compound I-294],1 to 5
5,C[C@@H]1C[C@@H](O)c2ncnc(N3CCN(C(=O)[C@@H](CCN4CCC(CN5CCN(C(=O)[C@H](NC(=O)c6cccc(C7CCCN(C(=O)CNCc8ccc(F)cc8F)C7)c6)C6CCCCC6)CC5)CC4)c4ccc(Cl)cc4)CC3)c21 (stereo partly drawn) [Compound I-275],0.5 to 1
6,CCc1cccc(-c2cc(F)c(C(=O)N3CCC(CN4CCN(CC[C@H](NC(=O)C5(N)CCN(c6ncnc7[nH]ccc67)CC5)c5ccc(Cl)cc5)CC4)CC3)c(F)c2)c1 [Compound I-263],1 to 5
7,NC1(C(=O)N[C@@H](CCN2CCC(OC3CCN(C(=O)c4cccc(C5CCCN(C(=O)C6CC6)C5)c4F)CC3)CC2)c2ccc(Cl)cc2)CCN(c2ncnc3[nH]ccc23)CC1 (stereo partly drawn) [Compound I-290],1 to 5
8,CC(C)(C)OC(=O)N[C@@H](C(=O)NCCCCS(=O)(=O)NCC[C@H](NC(=O)C1(N)CCN(c2ncnc3[nH]ccc23)CC1)c1ccc(Cl)cc1)C1CCCCC1 [Compound I-309],1 to 5
9,C[C@@H]1C[C@@H](O)c2ncnc(N3CCN(C(=O)[C@H](CN4CCC(OC5CCN(C(=O)[C@H](NC(=O)c6cccc(C7CCCN(C(=O)C89CC(C8)C9)C7)c6F)C6CCCCC6)CC5)CC4)c4ccc(Cl)cc4)CC3)c21 (stereo partly drawn) [Compound I-292],1 to 5
10,C[C@@H]1C[C@@H](O)c2ncnc(N3CCN(C(=O)[C@H](CCN4CCC(CN5CCN(C(=O)[C@H](NC(=O)c6cccc(C7CCCN(C(=O)C8CC8)C7)c6)C6CCCCC6)CC5)CC4)c4ccc(Cl)cc4)CC3)c21 (stereo partly drawn) [Compound I-265],1 to 5
11,NC1(C(=O)N[C@@H](CCN2CCN(C(=O)CN3CCC(OC4CCN(C(=O)[C@H](NC(=O)c5cccc(C6CC6)c5F)C5CCCCC5)CC4)CC3)CC2)c2ccc(Cl)cc2)CCN(c2ncnc3[nH]ccc23)CC1 [Compound I-270],1 to 5
12,NC1(C(=O)N[C@@H](CCN2CCN(C(=O)CN3CCC(CN4CCN(C(=O)c5cccc(C6CCCN(C(=O)C7CC7)C6)c5)CC4)CC3)CC2)c2ccc(Cl)cc2)CCN(c2ncnc3[nH]ccc23)CC1 (stereo partly drawn) [Compound I-233],5 to 10
13,CC(C)(C)OC(=O)N[C@@H](C(=O)N1CCC(OC2CCN(CC[C@H](NC(=O)C3(N)CCN(c4ncnc5[nH]ccc45)CC3)c3ccc(Cl)cc3)CC2)CC1)C1CCCCC1 [Compound I-311],0.5 to 1
14,CC(C)(C)OC(=O)N[C@@H](C(=O)N1CCN(CC23CCC(C(=O)N4CCN(CC[C@H](NC(=O)C5(N)CCN(c6ncnc7[nH]ccc67)CC5)c5ccc(Cl)cc5)CC4)(CC2)CO3)CC1)C1CCCCC1 [Compound I-308],1 to 5
15,C[C@@H]1C[C@@H](O)c2ncnc(N3CCN(C(=O)[C@@H](CCN4CCC(CN5CCN(C(=O)[C@H](NC(=O)c6cccc(C7CCCN(C(=O)CNC8CC8)C7)c6)C6CCCCC6)CC5)CC4)c4ccc(Cl)cc4)CC3)c21 (stereo partly drawn) [Compound I-273],0.5 to 1
16,NC1(C(=O)N[C@@H](CCNS(=O)(=O)CCCCNC(=O)[C@H](NC(=O)c2cccc(C3CN(C(=O)CNCc4ccc(F)cc4F)C3)c2)C2CCCCC2)c2ccc(Cl)cc2)CCN(c2ncnc3[nH]ccc23)CC1 [Compound I-238],> 10
17,NC1(C(=O)N[C@@H](CCOCCN2CCC(OC3CCN(C(=O)[C@H](NC(=O)c4cccc(C5CCCN(C(=O)CNC6CC6)C5)c4)C4CCCCC4)CC3)CC2)c2ccc(Cl)cc2)CCN(c2ncnc3[nH]ccc23)CC1 (stereo partly drawn) [Compound I-295],1 to 5
18,CC(C)(C)OC(=O)N[C@@H](C(=O)NCC[C@H](NC(=O)C1(N)CCN(c2ncnc3[nH]ccc23)CC1)c1ccc(Cl)cc1)C1CCCCC1 [Compound I-313],1 to 5
19,NC1(C(=O)N[C@@H](CCN2CCC(OC3CCN(C(=O)[C@H](NC(=O)c4ccc(C5CCN(C(=O)CNCc6ccc(F)cc6F)CC5)cc4)C4CCCCC4)CC3)CC2)c2ccc(Cl)cc2)CCN(c2ncnc3[nH]ccc23)CC1 [Compound I-220],1 to 5

# From patent publication US20250171465A1, “AKT INHIBITORS” (Stablix, Inc., priority 2023, published 2025)
